Data on 12 molecules can be found in patent US9624214B2, “Amino-substituted imidazo[1,2-a]pyridinecarboxamides and their use” (BAYER PHARMA AKTIENGESELLSCHAFT, priority 2012, dated 2017).

For this test, the target named is T1, recombinant guanylate cyclase reporter cell line (Rattus norvegicus, UniProt P19686+P20595).
T1 construct: expressed in transfected cells
T1 sequence (P20595 1-619): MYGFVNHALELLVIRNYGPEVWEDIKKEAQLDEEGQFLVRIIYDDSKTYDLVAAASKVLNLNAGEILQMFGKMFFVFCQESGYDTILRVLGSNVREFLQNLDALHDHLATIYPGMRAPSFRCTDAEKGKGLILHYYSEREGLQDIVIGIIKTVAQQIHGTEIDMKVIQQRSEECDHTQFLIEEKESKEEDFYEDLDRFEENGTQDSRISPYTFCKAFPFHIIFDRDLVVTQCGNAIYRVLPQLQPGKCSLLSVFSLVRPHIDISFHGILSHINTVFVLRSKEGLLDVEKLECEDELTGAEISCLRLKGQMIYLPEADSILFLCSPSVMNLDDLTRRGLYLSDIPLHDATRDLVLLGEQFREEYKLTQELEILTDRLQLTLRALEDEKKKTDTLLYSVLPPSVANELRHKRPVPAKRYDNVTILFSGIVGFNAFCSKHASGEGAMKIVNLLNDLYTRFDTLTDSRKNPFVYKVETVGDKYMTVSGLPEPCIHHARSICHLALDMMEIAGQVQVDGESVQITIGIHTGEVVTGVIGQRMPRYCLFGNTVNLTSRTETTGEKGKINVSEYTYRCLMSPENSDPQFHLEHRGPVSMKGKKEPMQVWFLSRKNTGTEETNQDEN
T1 sequence (P19686 1-690): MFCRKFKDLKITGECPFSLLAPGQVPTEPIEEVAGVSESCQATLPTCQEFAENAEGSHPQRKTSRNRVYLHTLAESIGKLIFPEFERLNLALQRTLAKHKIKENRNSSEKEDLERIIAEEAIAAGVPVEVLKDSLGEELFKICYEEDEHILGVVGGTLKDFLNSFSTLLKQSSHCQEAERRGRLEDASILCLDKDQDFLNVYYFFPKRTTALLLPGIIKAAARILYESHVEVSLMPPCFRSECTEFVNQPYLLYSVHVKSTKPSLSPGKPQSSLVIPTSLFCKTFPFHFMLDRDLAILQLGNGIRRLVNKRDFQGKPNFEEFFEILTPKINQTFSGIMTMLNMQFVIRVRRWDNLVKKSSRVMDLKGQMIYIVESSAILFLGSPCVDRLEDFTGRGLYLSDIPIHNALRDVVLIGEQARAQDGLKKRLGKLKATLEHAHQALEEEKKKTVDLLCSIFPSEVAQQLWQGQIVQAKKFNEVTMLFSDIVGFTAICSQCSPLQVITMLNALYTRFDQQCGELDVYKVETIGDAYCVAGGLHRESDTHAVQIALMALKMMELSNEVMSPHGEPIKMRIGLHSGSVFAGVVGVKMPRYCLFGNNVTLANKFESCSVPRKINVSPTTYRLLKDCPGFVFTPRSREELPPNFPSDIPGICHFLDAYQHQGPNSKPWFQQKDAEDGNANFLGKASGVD
The test can be described thus: B-2. Action on recombinant guanylate cyclase reporter cell line. The class given is cell-based. As to conditions: MEC = minimal effective concentration; in some cases mean values from individual determinations. An outline of the steps: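 Read-out: MEC (minimal effective concentration) in cells. Reporter line carries recombinant sGC. Some values are averages of single runs.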

`Cc1cc(OCc2c(F)cccc2F)c2nc(C)c(C(=O)NCCN3CC(N4CCCC4)C3)n2c1` [Example 162, 8-[(2,6-difluorobenzyl)oxy]-2,6-dimethyl-N-{2-[3-(pyrrolidin-1-yl)azetidin-1-yl]ethyl}imidazo[1,2-a]pyridine-3-carboxamide]: the MEC amounted to 3.00 µM.

`Cc1cc(OCc2c(F)cccc2F)c2nc(C)c(C(=O)NCCN3CCC(F)(F)CC3)n2c1` [Example 163, 8-[(2,6-difluorobenzyl)oxy]-N-[2-(4,4-difluoro-piperidin-1-yl)ethyl]-2,6-dimethylimidazo[1,2-a]pyridine-3-carboxamide]: the MEC turned out to be 0.30 µM.

Regarding `Cc1cc(OCc2c(F)cccc2F)c2nc(C)c(C(=O)NCCN(CC(F)F)C3CC3)n2c1` [Example 164, N-{2-[cyclopropyl(2,2-difluoroethyl)amino]ethyl}-8-[(2,6-difluorobenzyl)oxy]-2,6-dimethylimidazo[1,2-a]-pyridine-3-carboxamide], the MEC is 0.10 µM.

As to `Cc1cc(OCc2c(F)cccc2F)c2nc(C)c(C(=O)NCC3(N)CCC3)n2c1` [Example 165, N-[(1-aminocyclobutyl)methyl]-8-[(2,6-difluorobenzyl)oxy]-2,6-dimethylimidazo[1,2-a]-pyridine-3-carboxamide], the MEC came out at 0.10 µM.

Regarding `Cc1cc(OCc2c(F)cccc2F)c2nc(C)c(C(=O)NCCN3C[C@@H](C)O[C@@H](C)C3)n2c1` [Example 167, 8-[(2,6-difluorobenzyl)oxy]-N-{2-[(2R,6S)-2,6-dimethylmorpholin-4-yl]ethyl}-2,6-dimethyl-imidazo[1,2-a]pyridine-3-carboxamide], the MEC turned out to be 1.00 µM.

In the case of `Cc1nc2c(OCc3c(F)cccc3F)cccn2c1C(=O)NCCN1CCN(C2CC2)CC1` [Example 168, N-[2-(4-Cyclopropylpiperazin-1-yl)ethyl]-8-[(2,6-difluorobenzyl)oxy]-2-methylimidazo[1,2-a]-pyridine-3-carboxamide], the MEC was 1.00 µM.

With `Cc1nc2c(OCc3c(F)cccc3F)cccn2c1C(=O)NCCNCC(F)F` [Example 169, 8-[(2,6-difluorobenzyl)oxy]-N-{2-[(2,2-difluoroethyl)amino]ethyl}-2-methylimidazo[1,2-a]pyridine-3-carboxamide], the MEC turned out to be 1.65 µM.

Turning to `Cc1nc2c(OCc3c(F)cccc3F)cccn2c1C(=O)N[C@H](C)CN1CCOCC1` [Example 170, 8-[(2,6-difluorobenzyl)oxy]-2-methyl-N-[(2R)-1-(morpholin-4-yl)propan-2-yl]imidazo[1,2-a]-pyridine-3-carboxamide], the MEC was 3.00 µM.

Turning to `Cc1nc2c(OCc3c(F)cccc3F)cccn2c1C(=O)N[C@@H](C)CN1CCOCC1` [Example 171, 8-[(2,6-difluorobenzyl)oxy]-2-methyl-N-[(2S)-1-(morpholin-4-yl)propan-2-yl]imidazo[1,2-a]-pyridine-3-carboxamide], the MEC stood at 1.00 µM.

Take `Cc1cc(OCc2c(F)cccc2F)c2nc(C)c(C(=O)NC[C@@H]3CCCCN3)n2c1` [Example 172, 8-[(2,6-Difluorobenzyl)oxy]-2,6-dimethyl-N-[(2S)-piperidin-2-ylmethyl]imidazo[1,2-a]pyridine-3-carboxamide]: the MEC was 0.30 µM.

With `Cc1cc(OCc2c(F)cccc2F)c2nc(C)c(C(=O)NC[C@H]3CCCCN3)n2c1` [Example 173, 8-[(2,6-Difluorobenzyl)oxy]-2,6-dimethyl-N-[(2R)-piperidin-2-ylmethyl]imidazo[1,2-a]pyridine-3-carboxamide], the MEC was found to be 0.30 µM.

With `Cc1cc(OCc2c(F)cccc2F)c2nc(C)c(C(=O)NCC3(N)COC3)n2c1` [Example 216, N-[(3-Aminooxetan-3-yl)methyl]-8-[(2,6-difluorobenzyl)oxy]-2,6-dimethylimidazo[1,2-a]pyridine-3-carboxamide], the MEC is 1.00 µM.
